One series has as its target ERK 2 (Homo sapiens, UniProt P28482). Put plainly: Enzymatic inhibition assay (ADP-Glo Plus luminescence kinase assay), ERK2. The series is classed as biochemical. To be noted: for inhibition at 1 µM: 1 μM (1000 nM) compound. The method, then: (§1) All compounds were diluted in 10% DMSO and tested in 10-dose with 3-fold serial dilution starting at a concentration of 1 μM. Of the dilution, 5 µL was added to a 50 µL reaction so that the final concentration of DMSO is 1% in all of reactions. After all of the reaction mixtures were conducted at 30 °C for 40 min, the assay was performed using ADP-Glo Plus luminescence kinase assay kit. The luminescence signal and the intensity of the luminescence signal value were detected using a multi-well spectrophotometer (the MD-SpectraMax M5 multifunctional microplate reader). It was directly proportional to the inhibition of enzyme activity.
In general terms: ADP-Glo first removes unused ATP, then detects ADP through luciferase.

The next series addresses PI3Kα (Homo sapiens, UniProt P42336). As to the kind of experiment: Enzymatic inhibition assay (ADP-Glo Plus luminescence kinase assay), PI3Kα. In kind it is biochemical. Particulars: for inhibition at 1 µM: 1 μM (1000 nM) compound. The method, then: as §1, with “The 50 µL reaction mixture contains 40 mM Tris-HCl, pH 7.4, 10 µM ATP, 10 mM MgCl2, 0.1 mg/mL BSA, 1 mM DTT, 0.2 ug/mL ERK 2, ERK 1, PI3Kα, PI3Kβ, PI3Kγ or PI3Kδ and 100 uM lipid substrate. All” for “All”, “activity. The experimental results were converted into active percentages, a dose-response curve is drawn, and the IC50 value of inhibition was calculated using […] PRISM 5 nonlinear regression.” for “activity.”

In the next series the test system is HEC1B. Put plainly: Anti-proliferation assay (MTT, 72 h), HEC1B. In kind it is cell-based. Particulars: Homo sapiens, HEC-1B, HEC1B cells. On the procedure:
(§2) Human cancer cell lines HCT116 and HEC1B were cultured in media with 10% FBS (GIBCO, Invitrogen Corporation, NY, USA) at 37 °C in a 5% (v/v) CO2 humidified incubator. The logarithmic growth phase cells were seeded in a 96-well plate with a density of 1 × 10^5 cells/mL, cultured at 37 °C, 5% CO2. Until the cells were 90% confluent, the medium containing compound was added to incubate for 72 h, and then the cell viability was tested by MTT analysis. Taking the drug concentration as the abscissa and the percentage of proliferation inhibitory activity corresponding to each concentration as the ordinate, using Graphpad Prism 5 to do nonlinear regression, the IC50 value of each compound was calculated.

The test system of a further series is HCT116. As to the kind of experiment: Anti-proliferation assay (MTT, 72 h), HCT116. The series is classed as cell-based. To be noted: Homo sapiens, HCT-116, HCT116 cells. The method, then: as §2
A further series concerns HCT-116 xenograft. Put plainly: In vivo antitumor activity, HCT-116 xenograft in nude mice. More on the design: species or system Balb/c-nude mice. Particulars: intraperitoneal once daily, 21 days, 32d 5 mg/kg, BVD-523 5 mg/kg, GDC-0980 1 mg/kg; for TGI (tumor growth inhibitory rate): nude mice, combination 2.5 mg/kg + 0.5 mg/kg. The method, then: Male five-week-old Balb/c-nude mice (18–20 g) were injected subcutaneously with HCT-116 cells (5 × 10^7/mL cells suspended in Matrigel Matrix). […] All mice were administered by intraperitoneal q.d. The tumor volumes were measured using electronic digital calipers every 3 days and were calculated as 1/2 length × width × width.

Structures can show the parent of a compound that is named as a salt.

ERK 2, sequence (P28482 whole entry): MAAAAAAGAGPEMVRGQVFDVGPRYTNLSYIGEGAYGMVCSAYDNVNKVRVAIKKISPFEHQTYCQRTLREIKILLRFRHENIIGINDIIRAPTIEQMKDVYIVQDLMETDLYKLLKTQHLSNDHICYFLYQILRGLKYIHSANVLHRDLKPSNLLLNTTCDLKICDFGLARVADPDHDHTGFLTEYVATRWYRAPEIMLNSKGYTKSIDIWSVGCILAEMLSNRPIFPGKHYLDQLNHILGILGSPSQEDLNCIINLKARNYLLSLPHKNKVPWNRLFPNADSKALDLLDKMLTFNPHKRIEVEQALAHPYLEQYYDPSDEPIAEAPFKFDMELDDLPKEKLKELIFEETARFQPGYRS
PI3Kα, sequence (P42336 whole entry): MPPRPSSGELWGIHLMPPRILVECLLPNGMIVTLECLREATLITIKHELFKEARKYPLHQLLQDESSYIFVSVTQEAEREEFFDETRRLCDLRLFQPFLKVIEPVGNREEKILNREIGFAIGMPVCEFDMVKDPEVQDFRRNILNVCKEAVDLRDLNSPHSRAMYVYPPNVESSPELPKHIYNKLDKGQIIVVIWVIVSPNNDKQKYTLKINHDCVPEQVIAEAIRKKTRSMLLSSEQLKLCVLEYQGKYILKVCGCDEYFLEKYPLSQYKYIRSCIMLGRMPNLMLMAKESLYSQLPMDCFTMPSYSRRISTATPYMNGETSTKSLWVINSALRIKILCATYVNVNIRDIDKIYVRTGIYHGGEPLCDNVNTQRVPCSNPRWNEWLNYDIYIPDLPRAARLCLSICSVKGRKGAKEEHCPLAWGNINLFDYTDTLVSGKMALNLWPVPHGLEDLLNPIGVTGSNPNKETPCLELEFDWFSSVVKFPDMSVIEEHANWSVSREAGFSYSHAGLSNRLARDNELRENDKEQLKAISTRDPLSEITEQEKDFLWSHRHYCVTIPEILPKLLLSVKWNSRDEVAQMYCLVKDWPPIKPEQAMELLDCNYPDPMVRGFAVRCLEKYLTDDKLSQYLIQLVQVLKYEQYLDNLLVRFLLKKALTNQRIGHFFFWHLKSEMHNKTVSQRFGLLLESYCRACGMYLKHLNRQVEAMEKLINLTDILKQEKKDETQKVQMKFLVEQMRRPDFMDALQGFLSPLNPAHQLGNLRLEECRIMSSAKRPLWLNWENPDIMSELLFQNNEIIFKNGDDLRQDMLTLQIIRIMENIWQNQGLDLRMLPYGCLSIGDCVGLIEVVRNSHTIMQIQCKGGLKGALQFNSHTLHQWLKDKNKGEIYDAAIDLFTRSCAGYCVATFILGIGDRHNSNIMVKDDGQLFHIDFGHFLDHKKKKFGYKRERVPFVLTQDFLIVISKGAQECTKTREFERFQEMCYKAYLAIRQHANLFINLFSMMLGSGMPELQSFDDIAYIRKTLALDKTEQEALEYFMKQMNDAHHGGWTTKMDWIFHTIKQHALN
PI3Kα, sequence (P27986 whole entry partner): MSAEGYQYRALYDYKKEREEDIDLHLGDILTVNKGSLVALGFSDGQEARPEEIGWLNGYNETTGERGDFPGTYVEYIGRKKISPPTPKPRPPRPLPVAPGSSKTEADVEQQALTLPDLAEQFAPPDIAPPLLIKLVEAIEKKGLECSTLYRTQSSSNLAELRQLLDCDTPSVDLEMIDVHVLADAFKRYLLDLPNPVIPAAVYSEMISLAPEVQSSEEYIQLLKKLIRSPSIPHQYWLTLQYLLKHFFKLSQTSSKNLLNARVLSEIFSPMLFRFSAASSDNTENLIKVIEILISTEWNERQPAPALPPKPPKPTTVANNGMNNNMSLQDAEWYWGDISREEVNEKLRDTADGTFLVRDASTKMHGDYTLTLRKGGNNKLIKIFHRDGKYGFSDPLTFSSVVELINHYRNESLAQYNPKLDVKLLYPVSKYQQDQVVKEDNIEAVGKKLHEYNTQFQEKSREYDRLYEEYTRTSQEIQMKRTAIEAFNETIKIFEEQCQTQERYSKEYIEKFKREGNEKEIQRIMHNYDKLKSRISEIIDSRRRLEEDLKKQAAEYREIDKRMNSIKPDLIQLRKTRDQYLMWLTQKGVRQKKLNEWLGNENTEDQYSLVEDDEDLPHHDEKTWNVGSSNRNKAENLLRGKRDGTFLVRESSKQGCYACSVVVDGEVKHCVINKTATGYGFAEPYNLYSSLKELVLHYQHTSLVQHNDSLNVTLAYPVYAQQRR

On to “1-Cyclopentyl-3-(7-(2-methylpyridin-4-yl)pyrido[3,2-d]pyrimidin-2-yl)urea [32k]”, for which the “ERK2 Inhibition% (100 nM)” value at ERK 2 (100 nM compound) turned out to be 66.5%. For the same compound, the “PI3Kα Inhibition% (100 nM)” value on PI3Kα (100 nM compound) came to 15.3%.

As to `Cc1cc(-c2n[nH]c3nc(NC(=O)NCc4ccccc4)ncc23)ccn1` [16a, 1-Benzyl-3-(3-(2-methylpyridin-4-yl)-1H-pyrazolo[3,4-d]pyrimidin-6-yl)urea], the inhibition (commonly the drop in the measured response relative to a control, in per cent) at 1 µM on ERK 2 stood at 98.3%; at PI3Kα, 8.7%.

For the compound `Cc1cc(-c2n[nH]c3nc(NC(=O)NC4CCCC4)ncc23)ccn1` [16b, 1-Cyclopentyl-3-(3-(2-methylpyridin-4-yl)-1H-pyrazolo[3,4-d]pyrimidin-6-yl)urea], the inhibition at 1 µM at ERK 2 turned out to be 84.8%; at PI3Kα, 27.4%.

In the case of `Cn1cc(-c2n[nH]c3nc(NC(=O)NCc4ccccc4)ncc23)cn1` [16c, 1-Benzyl-3-(3-(1-methyl-1H-pyrazol-4-yl)-1H-pyrazolo[3,4-d]pyrimidin-6-yl)urea], the inhibition at 1 µM at ERK 2 was found to be 97.2%; on PI3Kα it was 1.8%.

Take `Cn1cc(-c2n[nH]c3nc(NC(=O)NC4CCCC4)ncc23)cn1` [16d, 1-Cyclopentyl-3-(3-(1-methyl-1H-pyrazol-4-yl)-1H-pyrazolo[3,4-d]pyrimidin-6-yl)urea]: the results for the inhibition at 1 µM on ERK 2 and at PI3Kα were 79.5% and 4%, respectively.

As for `Cc1cc(-c2cnc3cnc(NC(=O)NC4CCCC4)nc3c2)ccn1` [32b, 1-Cyclopentyl-3-(7-(2-methylpyridin-4-yl)pyrido[3,2-d]pyrimidin-2-yl)urea], the results for the inhibition at 0.1 µM on ERK 2 (100 nM compound) and on PI3Kα (100 nM compound) were 53.7% and 10.5%, respectively.

Take `O=C(Nc1ncc2ncc(-c3cccc(OC(F)(F)F)c3)cc2n1)NC1CCCC1` [32c, 1-Cyclopentyl-3-(7-(3-(trifluoromethoxy)phenyl)pyrido[3,2-d]pyrimidin-2-yl)urea]: the inhibition at 0.1 µM on ERK 2 (100 nM compound) was 1.6%; on PI3Kα (100 nM compound) it was -11.3%.

Turning to `O=C(Nc1ncc2ncc(-c3ccnc(F)c3)cc2n1)NC1CCCC1` [32e, 1-Cyclopentyl-3-(7-(2-fluoropyridin-4-yl)pyrido[3,2-d]pyrimidin-2-yl)urea], the values for the inhibition at 0.1 µM on ERK 2 (100 nM compound) and at PI3Kα (100 nM compound) were 35.4% and 7%, respectively.

As to `O=C(Nc1ncc2ncc(C3=CCNCC3)cc2n1)NC1CCCC1` [32f, 1-Cyclopentyl-3-(7-(1,2,3,6-tetrahydropyridin-4-yl)pyrido[3,2-d]pyrimidin-2-yl)urea hydrochloride], the figures for the inhibition at 0.1 µM at ERK 2 (100 nM compound) and on PI3Kα (100 nM compound) were 0.4% and -8.8%, respectively.

On to `Cn1cc(-c2cnc3cnc(NC(=O)NCc4ccccc4)nc3c2)cn1` [32g, 1-Benzyl-3-(7-(1-methyl-1H-pyrazol-4-yl)pyrido[3,2-d]pyrimidin-2-yl)urea], for which the half-maximal inhibitory concentration (IC50) (as a rule, the point on the concentration scale where inhibition reaches its midpoint) was found to be 83 nM on ERK 2, 824 nM on PI3Kα, 2270 nM with HEC1B and 10000 nM in the series on HCT116. Besides, the inhibition at 0.1 µM on ERK 2 (100 nM compound) amounted to 55.2%; at PI3Kα (100 nM compound), 32.4%.

With `Cn1cc(-c2cnc3cnc(NC(=O)Nc4ccccc4)nc3c2)cn1` [32h, 1-(7-(1-Methyl-1H-pyrazol-4-yl)pyrido[3,2-d]pyrimidin-2-yl)-3-phenylurea], the inhibition at 0.1 µM at ERK 2 (100 nM compound) came out at 17.2%; at PI3Kα (100 nM compound), 24.9%.

Turning to `CCNC(=O)Nc1ncc2ncc(-c3cnn(C)c3)cc2n1` [32i, 1-Ethyl-3-(7-(1-methyl-1H-pyrazol-4-yl)pyrido[3,2-d]pyrimidin-2-yl)urea], the values for the inhibition at 0.1 µM at ERK 2 (100 nM compound) and on PI3Kα (100 nM compound) were 22.1% and 33.4%, respectively.

Consider `Cn1cc(-c2cnc3cnc(NC(=O)NCCN4CCOCC4)nc3c2)cn1` [32j, 1-(7-(1-Methyl-1H-pyrazol-4-yl)pyrido[3,2-d]pyrimidin-2-yl)-3-(2-morpholinoethyl)urea], for which the inhibition at 0.1 µM was 6.2% at ERK 2 (100 nM compound) and 15.1% at PI3Kα (100 nM compound).

Consider `CC(C)Nc1cc(-c2c[nH]c(C(=O)N[C@H](CO)c3cccc(Cl)c3)c2)c(Cl)cn1` [BVD-523, reference compound], for which the inhibition at 0.1 µM at ERK 2 (100 nM compound) worked out at 97.7%. Besides, the inhibition at 1 µM on ERK 2 came out at 97.7%. Besides, in the series with HEC1B, it took 18000 nM to reach half-maximal inhibition (IC50). The IC50 with HCT116 amounted to 321 nM. In addition, in the series with HCT-116 xenograft, the “body weight of nude mice during treatment” value is reported as “losing” and the “TGI (tumor growth inhibitory rate)” value was 50%.

On to `Cc1c(CN2CCN(C(=O)[C@H](C)O)CC2)sc2c(N3CCOCC3)nc(-c3cnc(N)nc3)nc12` [GDC-0980, reference compound], for which the values for the half-inhibitory concentration (IC50) in the series with HEC1B and with HCT116 were 230 nM and 1060 nM, respectively. Besides, the “body weight of nude mice during treatment” value with HCT-116 xenograft is “losing”. For the same compound, the “TGI (tumor growth inhibitory rate)” value in the series on HCT-116 xenograft came out at 46%.

In the case of `Cn1cc(-c2cnc3nc(NC(=O)NC4CCCC4)ncc3c2)cn1` [compound 24, 1-Cyclopentyl-3-(6-(1-methyl-1H-pyrazol-4-yl)pyrido[2,3-d]pyrimidin-2-yl)urea], the results for the inhibition at 1 µM on ERK 2 and at PI3Kα were 1.8% and 15.1%, respectively.

Values taken from article PMC7730961, “Discovery of Novel Dual Extracellular Regulated Protein Kinases (ERK) and Phosphoinositide 3-Kinase (PI3K) Inhibitors as a Promising Strategy for Cancer Therapy” (Molecules, 2020).
